For 24 compounds, TGI and GI50 results are on record in PubChem BioAssay (NCI).

Test systems include HCT-116 colon; M14 melanoma; ACHN renal; RXF 393 renal; CAKI-1 renal; SNB-19 CNS; EKVX NSCLC; RPMI-8226 leukemia; NCI/ADR-RES ovarian; MDA-MB-231 breast.
Experiment in all cases: inhibition of tumour cell growth, NCI panel, 48 h

The structures appear in SMILES notation. “And” between values parts separate entries of the source, which are not always exact repeats. Equal entries are not always repeated.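 Where inhibition never reached the appropriate level, the endpoint shown equals the highest concentration tested. Otherwise, values were interpolated linearly from a five-concentration, 48-hour dose response in 96-well plates. GI50 = concentration required for 50% inhibition of growth. Definition used: TGI = concentration required for complete inhibition of growth.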 Where only a bound is given, the exact number is not on record here.

Turning to `COc1cc(CC(=O)O)c([N+](=O)[O-])cc1OC`, the TGI in the assay with HCT-116 colon, in the assay on M14 melanoma, in the assay on ACHN renal, with RXF 393 renal, in the assay on CAKI-1 renal and in the assay on SNB-19 CNS was over 100 µM throughout. Moreover, the TGI with EKVX NSCLC and in the assay on RPMI-8226 leukemia was over 100 µM throughout.
As to `Cc1cc(C)c(/C=N/NS(=O)(=O)c2ccccc2)c(C)c1`, the TGI in the assay on HCT-116 colon, in the assay with M14 melanoma, in the assay on ACHN renal, with RXF 393 renal, in the assay with CAKI-1 renal and in the assay on EKVX NSCLC was over 100 µM throughout. In the assay with RPMI-8226 leukemia, the TGI is over 100 µM.
Regarding `N#Cc1cccc(C2C(=O)c3ccc(C(=O)c4ccc5c(c4)C(=O)N(c4ccc(Oc6ccc(N7C(=O)c8ccc(C(=O)c9ccc%10c(c9)C(=O)N(c9cccc(C#N)c9)C%10=O)cc8C7=O)cc6)cc4)C5=O)cc3C2=O)c1` (centres undefined), the TGI in the assay on HCT-116 colon, in the assay on M14 melanoma, in the assay with ACHN renal, in the assay on RXF 393 renal, with SNB-19 CNS and with EKVX NSCLC was over 100 µM each time. In the assay on RPMI-8226 leukemia, the TGI was over 100 µM.
With `Cc1ccc(NC(=O)CC2SC(=Nc3ccc(Cl)cc3)NC2=O)cc1C` (centres undefined), the TGI is 32.9 µM in the assay with HCT-116 colon; 31.2 µM with M14 melanoma; 29.6 µM in the assay on ACHN renal; 32 µM in the assay with RXF 393 renal; 35.9 µM with CAKI-1 renal; over 100 µM in the assay on SNB-19 CNS. The figures for the TGI in the assay on EKVX NSCLC and in the assay on RPMI-8226 leukemia were 31.4 µM and 21.2 µM, respectively.
With `Fc1ccc(N=C2C=CC(=Nc3ccc(F)cc3)c3ccccc32)cc1`, the TGI in the assay with HCT-116 colon, in the assay on M14 melanoma, with ACHN renal, with RXF 393 renal, in the assay with SNB-19 CNS and with EKVX NSCLC was over 100 µM throughout. For the same compound, in the assay with RPMI-8226 leukemia, the TGI is over 100 µM.
Turning to `CC1=CC[C@@H](C(C)(C)O)C[C@@H]1O`, the TGI in the assay on HCT-116 colon, with M14 melanoma, in the assay on ACHN renal, in the assay with RXF 393 renal, with SNB-19 CNS and in the assay on EKVX NSCLC was over 5000 µM in each case.
Consider `CC1C(O)=C(O)c2ccccc2N1O` (centres undefined), for which the TGI in the assay on HCT-116 colon, in the assay with M14 melanoma, in the assay with ACHN renal, with RXF 393 renal, in the assay on CAKI-1 renal and with SNB-19 CNS was over 100 µM in each case. For the same compound, the TGI in the assay with EKVX NSCLC and in the assay with RPMI-8226 leukemia was over 100 µM each time.
As to `Clc1ccccc1C1SCc2nc3ccccc3n21` (centres undefined), the TGI in the assay with HCT-116 colon is 56.3 µM; in the assay on M14 melanoma, 59.9 µM; in the assay with ACHN renal it was over 100 µM; in the assay with RXF 393 renal, 60.5 µM; in the assay with CAKI-1 renal, over 100 µM; with SNB-19 CNS, 40.6 µM. The TGI with EKVX NSCLC was 81.9 µM; in the assay on RPMI-8226 leukemia, over 100 µM.
With `CCn1ncc(N=O)c1N`, the TGI with HCT-116 colon, in the assay with M14 melanoma, in the assay on ACHN renal, in the assay with NCI/ADR-RES ovarian, in the assay on CAKI-1 renal and with SNB-19 CNS was over 100 µM each time. Further, the TGI with EKVX NSCLC and with RPMI-8226 leukemia was over 100 µM each time.
As to `COC1C(=O)CCC2(CO2)C1(O)C1(C)OC1CC=C(C)C` (centres undefined), the TGI in the assay on HCT-116 colon is over 100 µM; in the assay with M14 melanoma, 53.2 µM; in the assay with ACHN renal, over 100 µM; in the assay with RXF 393 renal it was over 100 µM; in the assay on MDA-MB-231 breast it was over 100 µM; in the assay with CAKI-1 renal, over 100 µM. The TGI in the assay with SNB-19 CNS and in the assay with EKVX NSCLC was over 100 µM throughout.
Turning to `Cc1ccccc1-n1c(CCl)nc2ccc(Br)cc2c1=O`, the TGI in the assay on HCT-116 colon was 21.3 µM; with M14 melanoma, 22.8 µM; in the assay on ACHN renal, 83.8 µM; in the assay on RXF 393 renal, 26.8 µM; in the assay with CAKI-1 renal, 3.75 µM; in the assay on SNB-19 CNS it was 77.1 µM. For the same compound, the TGI was found to be 35 µM in the assay on EKVX NSCLC and 71.4 µM with RPMI-8226 leukemia.
Consider `CC(=O)O[C@@H]1CC[C@@]2(C)C(=O)C34C[C@@]5(C)C([C@@H](C)CCCC(C)C)CCC5(C)[C@](O)(O3)C(=O)[C@H]4C2C1(C)C` (some centres undefined), for which the TGI in the assay on HCT-116 colon was found to be 27 µM; in the assay with M14 melanoma, 25.8 µM; with ACHN renal, 27 µM; with CAKI-1 renal, 29.8 µM; in the assay on SNB-19 CNS it was 30.7 µM; in the assay with EKVX NSCLC, 38.3 µM. In the assay on RPMI-8226 leukemia, this compound gave a TGI of 38.9 µM.
As for `[CH3][Hg]/[N]=C(/N)NC#N`, the GI50 in the assay on HCT-116 colon was 14.4 µM; in the assay with M14 melanoma, 10.6 µM; with ACHN renal, 13.5 µM; in the assay on RXF 393 renal, 1.4 µM; in the assay with CAKI-1 renal, 12.9 µM; in the assay on RPMI-8226 leukemia, 2.62 µM. Also, the TGI was 27.9 µM in the assay on HCT-116 colon; 22.9 µM in the assay on M14 melanoma; 26.4 µM with ACHN renal; 5.13 µM in the assay with RXF 393 renal; 25.7 µM in the assay on CAKI-1 renal; over 100 µM in the assay on RPMI-8226 leukemia.
On to `O=C(Cc1nc2ccccc2o1)C(=O)Nc1ccc(Cl)cc1Cl`, for which the TGI in the assay with HCT-116 colon, in the assay on M14 melanoma, with ACHN renal, with RXF 393 renal, in the assay with CAKI-1 renal and in the assay on SNB-19 CNS was over 100 µM each time. Also, the TGI in the assay with EKVX NSCLC and in the assay on RPMI-8226 leukemia was over 100 µM each time.
Consider `CC1=C(C(=O)Nc2ccc(C)cc2)C(c2cccc([N+](=O)[O-])c2)C(C(=O)Nc2ccc(C)cc2)=C(C)N1`, for which the TGI was over 100 µM in the assay on HCT-116 colon; 49.2 µM in the assay with M14 melanoma; 80.8 µM in the assay with ACHN renal; 63.2 µM in the assay on RXF 393 renal; over 100 µM in the assay with CAKI-1 renal; over 100 µM in the assay on SNB-19 CNS. In addition, in the assay on EKVX NSCLC, the TGI is 86.1 µM.
In the case of `COc1ccc2nc3ccccc3c(NCCN(CCCl)CCCl)c2c1`, the TGI in the assay on HCT-116 colon came to 2.08 µM; in the assay with M14 melanoma, 2.28 µM; in the assay on ACHN renal it was 2.53 µM; in the assay with CAKI-1 renal, 0.937 µM; in the assay on SNB-19 CNS it was 7.66 µM; in the assay with EKVX NSCLC it was 8.02 µM.
With `N#CCCN(c1ccc(C=O)cc1)S(=O)(=O)c1ccccc1`, the TGI in the assay on HCT-116 colon, with M14 melanoma, with ACHN renal, in the assay with CAKI-1 renal, in the assay with SNB-19 CNS and with EKVX NSCLC was over 100 µM throughout. In the assay on RPMI-8226 leukemia, this compound displayed a TGI of over 100 µM.
As to `CC(=O)Nc1ccc(C2=N/C(=C\c3ccc(Cl)cc3)C(=O)O2)cc1`, the TGI in the assay with HCT-116 colon is over 100 µM; in the assay on M14 melanoma, 56.2 µM; in the assay with ACHN renal, 94 µM; in the assay on RXF 393 renal, over 100 µM; in the assay with CAKI-1 renal, over 100 µM; in the assay on SNB-19 CNS, over 100 µM. For the same compound, the TGI in the assay with EKVX NSCLC and in the assay with RPMI-8226 leukemia was over 100 µM throughout.
As to `O=C(CC1(O)C(=O)Nc2ccccc21)c1ccccc1O` (centres undefined), the TGI in the assay with HCT-116 colon, in the assay with M14 melanoma, with ACHN renal, with RXF 393 renal, in the assay on CAKI-1 renal and in the assay with SNB-19 CNS was over 100 µM each time. Besides, the TGI in the assay on EKVX NSCLC and in the assay with RPMI-8226 leukemia was over 100 µM in each case.
Take `Cc1cc(C)nc(NS(=O)(=O)c2ccc(NC(=O)COC(=O)c3cccc4c(=O)c5ccccc5[nH]c34)cc2)n1`: the TGI in the assay on HCT-116 colon was 55 µM; in the assay on M14 melanoma, over 100 µM; with ACHN renal it was over 100 µM; with RXF 393 renal, 74.5 µM; with CAKI-1 renal, over 100 µM; in the assay with SNB-19 CNS, 77.2 µM. The TGI in the assay on EKVX NSCLC and in the assay with RPMI-8226 leukemia was over 100 µM throughout.
As for `COc1ccc([C@@H]2OC(=O)C3C2C(=O)O[C@H]3c2ccc(OC)cc2)cc1` (some centres undefined), the TGI in the assay on HCT-116 colon, with ACHN renal, with RXF 393 renal, in the assay on CAKI-1 renal, in the assay with SNB-19 CNS and with EKVX NSCLC was over 100 µM in each case. In addition, the TGI with RPMI-8226 leukemia was over 100 µM.
For `COC(=O)C(C(=O)C(=O)Nc1ccccc1C)c1nc2ccc([N+](=O)[O-])cc2[nH]c1=O` (centres undefined), the TGI in the assay on HCT-116 colon, in the assay on M14 melanoma, in the assay on ACHN renal, in the assay on RXF 393 renal, in the assay on CAKI-1 renal and with SNB-19 CNS was over 100 µM in each case. Besides, the TGI with EKVX NSCLC and in the assay with RPMI-8226 leukemia was over 100 µM in each case.
Consider `Cc1cc(Cl)cc2c1NC(=O)C2(O)C(C(=O)c1ccccc1)c1ccccc1` (centres undefined), for which the TGI is 79.3 µM with HCT-116 colon; > 100 µM and 55.5 µM in the assay with M14 melanoma; > 100 µM and 40.6 µM in the assay with ACHN renal; 86.1 µM and 31.7 µM with RXF 393 renal; over 100 µM in the assay with CAKI-1 renal; over 100 µM in the assay on SNB-19 CNS. The TGI in the assay with EKVX NSCLC is over 100 µM; in the assay with RPMI-8226 leukemia, 64.5 µM and 42.4 µM. Besides, the GI50 is 90.9 µM and 22.6 µM in the assay with M14 melanoma; 43 µM and 18.8 µM with ACHN renal; 38 µM and 16.2 µM in the assay with RXF 393 renal; 35.7 µM and > 100 µM in the assay on CAKI-1 renal.
Consider `CCOC(=O)C(=O)C(C#N)c1ccc(Cl)cc1` (centres undefined), for which the TGI with HCT-116 colon, with M14 melanoma, in the assay on ACHN renal, in the assay on RXF 393 renal, with CAKI-1 renal and in the assay with SNB-19 CNS was over 100 µM throughout. Moreover, the TGI in the assay on EKVX NSCLC and with RPMI-8226 leukemia was over 100 µM in each case.
